Source: US20050209278A1, “Piperidinyl- and piperazinyl-sulfonylmethyl hydroxamic acids and their use as protease inhibitors” (priority 2002, published 2005)

How the values were obtained:
MMP-13 = molecular target: T1, MMP-13 (Homo sapiens, UniProt P45452); test: In vitro MMP inhibition, IC50 determination (fluorogenic substrate I); assay type: biochemical; details: value in parenthesis; read-out: MMP-13 (IC-50)
T1 construct: made in house; host or cells: baculovirus / insect cells
Description: (§1) Several hydroxamic acids and salts thereof were analyzed in in vitro assays to determine their ability to inhibit the MMP cleavage of peptide substrates. […] and IC50 constants were calculated from the assayed hydroxamic acid-MMP interactions.
(§2) Human recombinant MMP-1, MMP-2, MMP-9, MMP-13, and MMP-14 were used in this assay. All enzymes were prepared in Assignee's laboratories following usual laboratory procedures. Protocols for the preparation and use of these enzymes are available in the scientific literature. See, e.g., Enzyme Nomenclature (Academic Press, San Diego, Calif., 1992) (and the citations therein). See also, Freije et al., “Molecular cloning and expression of collagenase-3, a novel human matrix metalloproteinase produced by breast carcinomas,” J Biol. Chem., 269(24), 16766-16773 (1994).
The MMP-13 was obtained as a proenzyme from a full-length cDNA clone using baculovirus, as described by V. A. Luckow, “Insect Cell Expression Technology,” Protein Engineering: Principles and Practice, pp. 183-218 (edited by J. L. Cleland et al., Wiley-Liss, Inc., 1996). The expressed proenzyme was first purified over a heparin agarose column, and then over a chelating zinc chloride column. The proenzyme was then activated by APMA for use in the assay. Further details on baculovirus expression systems may be found in, for example, Luckow et al., J. Virol., 67, 4566-79 (1993). See also, O'Reilly et al, Baculovirus Expression Vectors: A Laboratory Manual (W.H. Freeman and Co., New York, N.Y., 1992). See also, King et al., The Baculovirus Expression System: A Laboratory Guide (Chapman & Hall, London, England, 1992).
(§3) All MMPs were activated using 4-aminophenylmercuric acetate (“APMA”, Sigma Chemical, St. Louis, Mo.) or trypsin. MMP-9 also was activated using human recombinant MMP-3 (purified in Assignee's laboratory following standard cloning and purification techniques).
(§4) Two fluorogenic, methoxycoumarin-containing polypeptide substrates were used in the MMP inhibition assays: [drawing 427] Here, “Dpa” is 3-(2,4-dinitrophenyl)-L-2,3-diaminopropionyl group, and “MCA” is 7-methoxycoumarin-4-yl acetyl. Substrate (I) was purchased from Baychem (Redwood City, Calif.), and substrate II was prepared Assignee's laboratory. Substrate I was used in the IC50 determination assays, while substrate II was used in the Ki determination assays. In the absence of MMP inhibitory activity, either substrate is cleaved at the Gly-Leu peptide bond. This cleavage separates the highly fluorogenic peptide from the 2,4-dinitrophenyl quencher, thus resulting in increase of fluorescent intensity.
(§5) The stock solutions of the assayed hydroxamic acids (or salts thereof) were prepared in 1% dimethyl sulfoxide (DMSO). These stock solutions were diluted in Buffer A (100 mM Tris-HCl, 100 mM NaCl, 10 mM CaCl2, 0.05% polyoxyethylene 23 lauryl ether, pH 7.5) to obtain solutions with different hydroxamic acid concentrations, i.e., assay solutions with different concentrations of the assayed MMP inhibitory compound. The experiment controls contained the same amount of Buffer A/DMSO as the assayed sample, but contained no hydroxamic acid (or salt thereof).
The assays from which the IC50 determinations were made were performed as follows. The MMPs were activated with either trypsin or APMA (4-aminophenylmercuric acetate, Sigma Chemical, St. Louis, Mo.). The assayed hydroxamic acid samples were incubated in Microfluor™ White Plates (Dynatech, Chantilly, Va.) and analyzed on a Perkin Elmer L550 plate reader (Norwalk, Conn.). The excitation wavelength was 328 nm, and the emission wavelength—415 nm. All samples (assayed hydroxamic acids and controls) were incubated in separate plates at room temperature in the presence of 4 μM of MMP substrate (I). As stated in the previous paragraph, samples containing varying concentrations of the same assayed hydroxamic acid were prepared. Inhibition was measured as a reduction in fluorescent intensity as a function of MMP inhibitor concentration. […]

MMP-2 = molecular target: T2, MMP-2 (Homo sapiens, UniProt P08253); test: as above; assay type: biochemical; details: value in parenthesis; read-out: MMP-2 (IC-50)
T2 construct: made in house; host or cells: MMP-2-transfected p2AHT2 cells
T2 sequence (P08253 110-660): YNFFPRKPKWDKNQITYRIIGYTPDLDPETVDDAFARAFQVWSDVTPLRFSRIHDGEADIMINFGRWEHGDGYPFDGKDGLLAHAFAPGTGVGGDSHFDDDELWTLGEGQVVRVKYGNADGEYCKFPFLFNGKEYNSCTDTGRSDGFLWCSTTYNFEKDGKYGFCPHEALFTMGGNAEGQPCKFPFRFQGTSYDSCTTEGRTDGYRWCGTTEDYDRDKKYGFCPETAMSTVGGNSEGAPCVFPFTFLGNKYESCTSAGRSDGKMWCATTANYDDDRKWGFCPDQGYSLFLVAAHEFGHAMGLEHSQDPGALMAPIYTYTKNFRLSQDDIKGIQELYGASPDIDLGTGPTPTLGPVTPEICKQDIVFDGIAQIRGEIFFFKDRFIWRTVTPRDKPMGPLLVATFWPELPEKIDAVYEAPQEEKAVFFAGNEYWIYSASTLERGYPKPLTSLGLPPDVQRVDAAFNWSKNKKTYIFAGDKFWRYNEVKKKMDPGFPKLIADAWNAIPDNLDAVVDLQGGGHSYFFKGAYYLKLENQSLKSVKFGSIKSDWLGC
Description: as §1, §2
The MMP-2 proenzyme was purified by gelatin Sepharose chromatography from MMP-2-transfected p2AHT2 cells provided by Dr. Gregory Goldberg of Washington University (St. Louis, Mo.).
as §3, §4, §5
The assays from which the IC50 determinations were made were performed as follows. The MMPs were activated with either trypsin or APMA (4-aminophenylmercuric acetate, Sigma Chemical, St. Louis, Mo.). The assayed hydroxamic acid samples were incubated in Microfluor™ White Plates (Dynatech, Chantilly, Va.) and analyzed on a Perkin Elmer L550 plate reader (Norwalk, Conn.). The excitation wavelength was 328 nm, and the emission wavelength—415 nm. All samples (assayed hydroxamic acids and controls) were incubated in separate plates at room temperature in the presence of 4 μM of MMP substrate (I). As stated in the previous paragraph, samples containing varying concentrations of the same assayed hydroxamic acid were prepared. Inhibition was measured as a reduction in fluorescent intensity as a function of MMP inhibitor concentration.
The above protocols were used to determine IC50 constants and Ki values for the compounds in Examples 1-27 above. All values in Table 2 are given in nM units. The IC50 measurements are in parenthesis.

| Structure (SMILES) | IC50 (MMP-13) | IC50 (MMP-2) |
| --- | --- | --- |
| CCCC(C)Cc1ccc(N2CCN(S(=O)(=O)C3(C(=O)NO)CCN(CCOC)CC3)CC2)cc1 (stereo not drawn) [Example 189] | 1 nM | 1.9 nM |
| CCC(C)Cc1ccc(N2CCN(S(=O)(=O)C3(C(=O)NO)CCN(CCOC)CC3)CC2)cc1 (stereo not drawn) [Example 190] | 2.4 nM | 1.6 nM |
| COCCN1CCC(C(=O)NO)(S(=O)(=O)N2CCN(c3ccc(CCCCC(C)C)cc3)CC2)CC1 [Example 191] | < 1 nM | < 0.1 nM |
| COCCN1CCC(C(=O)NO)(S(=O)(=O)N2CCN(c3ccc(CC(C)C)cc3)CC2)CC1 [Example 192] | 3.6 nM | 1.3 nM |
| CCc1ccc(N2CCN(S(=O)(=O)C3(C(=O)NO)CCN(CCOC)CC3)CC2)cc1 [Example 193] | 1.9 nM | 0.2 nM |
| COCCN1CCC(C(=O)NO)(S(=O)(=O)N2CCN(c3ccc(C)cc3)CC2)CC1 [Example 194] | 3.1 nM | 0.5 nM |
| COCCN1CCC(C(=O)NO)(S(=O)(=O)N2CCN(c3ccccc3)CC2)CC1 [Example 195] | 11.5 nM | 2.4 nM |
| COCCN1CCC(C(=O)NO)(S(=O)(=O)N2CCN(c3nc4ccccc4o3)CC2)CC1 [Example 196] | 177 nM | 30.5 nM |
| CCCCCc1ccc(N2CCN(S(=O)(=O)C3(C(=O)NO)CCOCC3)CC2)nn1 [Example 197] | 35.1 nM | 19.1 nM |
| O=C(NO)C1(S(=O)(=O)N2CCN(c3ccc(Cl)nn3)CC2)CCOCC1 [Example 198] | 285 nM | 18.2 nM |
| CCCCCCc1ccc(N2CCN(S(=O)(=O)C3(C(=O)NO)CCN(CCOC)CC3)CC2)cc1 [Example 199] | 0.2 nM | < 0.1 nM |
| CCCc1ccc(N2CCN(S(=O)(=O)C3(C(=O)NO)CCN(CCOC)CC3)CC2)cc1 [Example 200] | 0.6 nM | < 0.1 nM |
| COCCN1CCC(C(=O)NO)(S(=O)(=O)N2CCN(c3ccc(Br)cc3)CC2)CC1 [Example 201] | 0.8 nM | < 0.1 nM |
| COCCN1CCC(C(=O)NO)(S(=O)(=O)N2CCN(c3ccc(OC(F)(F)F)cc3)CC2)CC1 [Example 202] | 0.2 nM | < 0.1 nM |
| O=C(NO)C1(S(=O)(=O)N2CCN(c3ccc(OC(F)(F)F)cc3)CC2)CCN(C2CC2)CC1 [Example 203] | 0.5 nM | < 0.1 nM |
